Reference: US8618068B2, “Methods and low dose regimens for treating red blood cell disorders” (priority 2009, dated 2013)
Several values for one entry are separate records, joined by “and”; a condition that tells them apart may be missing. Equal entries are not always repeated. Where two headings read alike, the source gives them in different places.

What was measured:
γ-globin mRNA = γ-globin mRNA in μLCR-human Aγ-globin transgenic mice; assay type: in vivo; conditions: after treatment with DMB
Description: Transgenic mice containing the human β globin gene locus in a yeast artificial chromosome (βYAC) displaying the correct developmental regulation of ε-, γ-, and β-globin genes (with a silenced y-globin gene in the adult stage) were used to study the effects of DMB on γ-globin induction and erythroid cell production. In the μLCR-human A γ-globin transgenic mice, the y-globin mRNA expression relative to murine α-globin mRNA was increased by a mean of 1.8-fold above the baseline after treatment with DMB. In the βYAC transgenic mice at intraperitoneal (IP) doses of 500 mg/kg/day, DMB induced a 2-fold increase in human γ-globin mRNA synthesis relative to that of total non-α-globin. This level of induction was similar to that seen with 1,000 mg/kg/day of butyrate, and the changes were observed from 3 days after treatment initiation and persisted until 3 to 5 days after treatment termination.

[1] = Immunotoxicology weight-of-evidence analysis, repeat dose dog study; assay type: in vivo, Beagle dog
Description: The immunotoxicological potential of DMB has been evaluated by a weight-of-evidence analysis of the data generated in the repeat dose Sprague Dawley rat and Beagle dog studies. In both studies, there were no effects of treatment on WBC levels or lymph node histopathology, which are predictive of potential immunotoxicity.

[2] = Pharmacokinetics of single doses in 5 baboons; conditions: monkey, in vivo
Experimental: Pharmacokinetics analyses have been conducted with DMB and 2,2-dimethylbutyric acid neutralized with L-arginine in baboons, dogs, and rats. The AUC per dose varied between animals.
Pharmacokinetic analyses of 2,2-dimethylbutyrate was conducted as either the sodium salt or the L-arginine salt, via the oral or intravenous route, as single doses to 5 baboons at doses of 33.3, 83.3, 100, 125 or 167 mg/kg free acid.
The data collected on DMB in plasma allowed an assessment of pharmacokinetic parameters; however, since collection time points were not performed in some baboons during the terminal elimination phase, these determinations are preliminary. The AUC per dose varied between animals. The area under the plasma concentration time-curve (AUC0-24 hr) following oral administration of DMB at 83.3 or 125 mg/kg free acid (100 and 150 mg/kg with salt) ranged from 1962-9363 μmol·h/L ([…]).

[3] = Phase 1 repeat-dose clinical study, pharmacokinetics; assay type: in vivo, human; conditions: for AUC(0-t): read-out: AUC0-24
Experimental: DMB was evaluated in a phase 1, placebo-controlled, randomized, repeat dose clinical study that evaluated tolerability, safety, and pharmacokinetics in healthy volunteers. A total of 41 subjects (31 receiving active drug and 10 receiving placebo) completed 14 consecutive days of study medication at daily dose levels of 5, 10 or 15 mg/kg (10 subjects received placebo). Given the importance of iron in red blood cell production, and the requirement for iron supplementation for induction of HbF with other erythropoietic agents, subjects at all 3 dose levels received oral ferrous gluconate on the study medication days. DMB was administered with food to all but one group (5 mg/kg, cohort 1). Subjects were admitted and observed for 24 hours following initial dosing. Thereafter, the study drug was taken once per day at home, except for the last study day. The subjects were monitored weekly for 6 weeks. Thirty-seven subjects completed the study and 4 subjects dropped out due to conflicts. Safety and PK data are available on these subjects.
The treatment groups included: Cohort 1: 5 mg/kg fasting, 6 active, 2 placebo; Cohort 2: 5 mg/kg with food, 7 active, 2 placebo (3 drop outs); Cohort 3: 5 mg/kg with food and iron supplements, 6 active, 2 placebo (1 drop out); Cohort 4: 10 mg/kg with food and iron supplements, 6 active, 2 placebo; and Cohort 5: 15 mg/kg with food and iron supplements, 6 active, 2 placebo. Subjects in Cohorts 3, 4, and 5 received a single daily dose of ferrous gluconate (325 mg). The iron supplement was administered to evaluate study medication tolerability when taken with iron. No subjects discontinued due to AEs or safety concerns. Fewer subjects reported an event in the highest dose cohort following eating a meal ([…]) than were reported in the lower dose cohorts ([…], 5 and 10 mg/kg).
Pharmacokinetic (PK) analyses of individual subject plasma concentration-time data were conducted for Day 0 (first dose) and Day 13 (at steady-state) in the multi-dose study. […] Analysis of PK data has shown that plasma drug levels >20 ug/mL persist for greater than 10 hours at the 10 and 15 mg/kg dose levels.

F-reticulocytes = experiment: F-reticulocyte production in anemic baboons; assay type: in vivo
Experimental: Expression of γ-globin and erythroid cell production was evaluated in a primate model in which baboons are phlebotomized on a daily basis to simulate the chronic RBC destruction associated with hemoglobinopathies. In this model, baboons, aged 2 to 3 years, had 2.5 to 7 mL/kg of blood withdrawn daily, and the volume replaced with an identical volume of normal saline. Hemoglobin levels were lowered relative to control levels, but were maintained between 6.5 to 7.5 g/dL, the level necessary for the modulation of globin genes in this animal species. The animals were supplemented with iron dextran and folic acid. The phlebotomy regimen effectively exchanged the animals' total blood volume every 10 to 20 days.
Globin chain protein synthesis was measured in DMB treated animals using ^3H-leucine-labeled reticulocytes before and 2 and 4 days after treatment. Complete blood counts and reticulocyte counts were monitored 3 times per week and plasma concentrations of the test article was determined. DMB was administered intravenously (IV, daily) or orally via nasogastric gavage under light anesthesia (on 3 alternating days per week for up to 6 weeks), on a dose-escalation schedule with starting doses of 500 to 800 mg/kg. If γ globin induction was observed, lower doses (40-200 mg/kg) were tested. Recombinant human erythropoietin (rhu-EPO) was also administered in separate treatment courses to 2 baboons at doses of 300 U/kg three times per week subcutaneously as a positive control for the erythropoietic effects of DMB. Treatments were performed in individual baboons.
In the anemic baboon model, increases in F-reticulocytes were usually observed within 2-3 days of treatment initiation and diminished within 3 to 5 days of treatment cessation.

**Q.** Which results are given for `CCC(C)(C)C(=O)[O-].[Na+]` [DMB, Sodium 2,2-dimethylbutyrate]?
**A.** γ-globin mRNA expression relative to murine α-globin mRNA, mean increase above baseline (γ-globin mRNA): 1.8 fold; effects on WBC levels or lymph node histopathology [1]: no effects; clearance [2]: 0.833 to 7 mL/min/kg; half-life ([2]; half-life, range): 1.2 to 7.9 h; half-life ([2]; median half-life): 2.7 h; AUC(0-t) ([2]; po, 125 mg/kg): 1960 µM·h to 9360 µM·h and 226 ng·h/mL to 1080 ng·h/mL; bioavailability ([2]; po, Oral bioavailability over 24 hours): > 60%; time for which plasma drug levels >20 ug/mL persist ([3]; 10 and 15 mg/kg dose levels): greater than 10 hours; time for which targeted plasma drug levels were maintained ([3]; 10 and 15 mg/kg dose levels): more than 10 hours; AUC(0-t) ([3]; human, plasma, oral, 5 mg/kg, Day 0, fed, with iron): 226 µg·h/mL; Cmax ([3]; human, plasma, oral, 5 mg/kg, Day 0, fed, with iron, read-out: mean plasma Cmax): 16300 ng/mL; AUC(0-t) ([3]; human, plasma, oral, 5 mg/kg, Day 0, without iron): 241 µg·h/mL; Cmax ([3]; human, plasma, oral, 5 mg/kg, Day 0, without iron, read-out: Average Cmax): 17700 ng/mL; Cmax ([3]; human, plasma, oral, 5 mg/kg, Day 13, fed, with iron, read-out: Cmax): 24800 ng/mL; AUC ([3]; human, plasma, oral, 5 mg/kg, Day 13, with iron): 360 µg·h/mL; AUC ([3]; human, plasma, oral, 5 mg/kg, Day 13, without iron): 312 µg·h/mL; Cmax ([3]; human, plasma, oral, 5 mg/kg, Day 13, without iron, read-out: Average Cmax): 22400 ng/mL; AUC(0-t) ([3]; human, plasma, oral, 10 mg/kg, Day 0, fed): 441 µg·h/mL; Cmax ([3]; human, plasma, oral, 10 mg/kg, Day 0, fed, read-out: mean plasma Cmax): 30600 ng/mL; AUC ([3]; human, plasma, oral, 10 mg/kg, Day 13): 538 µg·h/mL; Cmax ([3]; human, plasma, oral, 10 mg/kg, Day 13, read-out: Cmax): 35700 ng/mL; AUC(0-t) ([3]; human, plasma, oral, 15 mg/kg, Day 0, fed): 697 µg·h/mL; Cmax ([3]; human, plasma, oral, 15 mg/kg, Day 0, fed, read-out: mean plasma Cmax): 48300 ng/mL; AUC ([3]; human, plasma, oral, 15 mg/kg, Day 13): 958 µg·h/mL; Cmax ([3]; human, plasma, oral, 15 mg/kg, Day 13, read-out: Cmax): 67600 ng/mL; Tmax ([3]; human, plasma, oral, all dose levels, both days, dosing with food): 2.5 to 4.4 h; half-life ([3]; human, plasma, oral, doses of 10 and 15 mg/kg, read-out: mean T1/2 (converted)): 11 h; F-reticulocytes Mean Fold Increase (F-reticulocytes; 150 mg/kg/day, IV, 5 days): 5; F-reticulocytes Mean Fold Increase (F-reticulocytes; 200 mg/kg/day, IV, 5 days/wk): 15; F-reticulocytes Mean Fold Increase (F-reticulocytes; 500 mg/kg/2nd day, Oral, 5 days/wk, 2 wks): 3.8; F-reticulocytes Mean Fold Increase (F-reticulocytes; 500-700 mg/kg/2nd day, Oral): 3.8
